# Reference: PMC7347206, “Characterization of a long-term mouse primary liver 3D tissue model recapitulating innate-immune responses and drug-induced liver toxicity” (PLoS ONE, 2020)
# pIC50: −log10 of the molar value. Like-named read-outs stand apart in the source and are kept apart here.
# How the values were obtained:
# [1] = system: mouse primary hepatocyte 3D liver spheroids; assay: cells; settings: for pIC50: Mus musculus, Hepatocyte; for MOS [3D in vitro IC50 / Human Cmax] 48 h / MOS [3D in vitro IC50 / Human Cmax] 8 days: C57BL/6, mouse
# Experimental: To avoid increased evaporation, a humidified lid (Labcyte, USA), filled with PBS, was placed on each plate. […] From day 4 on, 50% of the medium was replaced daily with serum-free maintenance medium (WME with Cell Maintenance Supplement Pack (Thermo Fisher Scientific, USA)).
# Compounds were obtained from Sigma-Aldrich if not otherwise stated. […] Toxicity treatment started on day 7 with re-dosing every second day. On the first day of exposure, 50 μl of the cell culture media was removed and 50 μl of fresh cell culture media containing the compound solution was added to the well to achieve the desired concentration. For redosing, 50 μl of cell culture media was replaced with fresh compound-containing cell culture media. […] The dose-response curves were plotted, and IC50 values were calculated using Graph-Pad Prism.
# Drug-induced liver injury (DILI) is a major concern in drug development, which often cannot be predicted in vitro due to inherent limitations of 2D hepatocyte cultures, including short-term viability and decreased functionality. […] The spheroids either experienced a single treatment and were analyzed after 48 hours (Fig 3A–3G, 48 h), or they were repeatedly treated every 2 days and analyzed at day 8 (Fig 3A–3G, 8 days). In both cases, ATP content was used as a viability marker.
# [2] = read-out: Mouse Cmax; reported mouse in vivo maximal plasma concentration; 41 (one per compound, as in cell); cited from earlier work
# [3] = read-out: Human Cmax; reported human in vivo Cmax; 48 (one per compound, as in cell); cited from earlier work
# [4] = system: IL-6 release of Kupffer cells and liver sinusoidal endothelial cells; assay: LPS-induced IL-6 release (ELISA) from liver spheroids; format: cell-based, mouse; settings: LPS for 72 hours, 14 days after production
# Experimental: (§1) The activation potential of Kupffer cells and liver sinusoidal endothelial cells was measured by assessing the lipopolysaccharide (LPS)-induced interleukin 6 (IL-6) release. […] was added, and the supernatant was collected after […]. IL-6 concentrations were measured by ELISA (BioLegend, USA). For stellate-cell activation, spheroids were treated with different concentrations of transforming growth factor beta TGFβ (Bio-Techne AG, Switzerland) for 72 hours. Induction of smooth-muscle-α-actin (Acta2) gene expression was measured via quantitative real-time polymerase chain reaction (qRT-PCR), described in the section “gene expression analysis”. For the induction of the major histocompatibility complex class II (MHCII) on LSECs, spheroids were treated with 100 ng ml^-1 tumor-necrosis factor alpha (TNFα; Sigma-Aldrich, Switzerland) for 48 h. H2-Ab1 gene expression was measured via qRT-PCR.
# (§2) NPCs are activated upon detection of endotoxins, such as lipopolysaccharides (LPS), which leads to the secretion of certain cytokines by NPCs. To assess the functionality and activation potential of NPCs, monoculture and coculture spheroids were treated with LPS for 72 hours and analyzed for interleukin 6 (IL-6) release (Fig 4C). […] Stellate cells are quiescent in a normal liver but can be activated upon liver damage and are responsible for scar-tissue formation. […]
# [5] = system: Cyp3a11; assay: Crosstalk of parenchymal and non-parenchymal cells: Cyp3a11 mRNA in coculture spheroids ± LPS; settings: LPS alone, 10 μg/ml, 48 h
# Experimental: (§3) Cytochrome P450 (Cyp450), as well as IL-6 and TNFα gene expression was measured by qRT-PCR.
# (§4) Drug-induced liver injuries can be caused by several modes of action, including perturbations of biochemical pathways caused by the interaction of parenchymal and non-parenchymal cells. These complex and dynamic cellular interactions can only be represented in vivo or in coculture models, which include the parenchymal and non-parenchymal cells.
# [6] = system: IL-6; assay: Crosstalk of parenchymal and non-parenchymal cells: IL-6 mRNA in coculture spheroids; format: cell-based, mouse
# Experimental: as §3, §4
# [7] = system: Cyp3a11; assay: Cyp450 induction on mRNA level (qRT-PCR) in liver spheroids; format: in vitro ADME, mouse; settings: PCN 50 μM, Pb 100 μM
# Experimental: (§5) To analyze the metabolic capacity, spheroids were incubated with different Cyp inducers for 72 hours, starting 7 days or 14 days post seeding and analyzed by qRT-PCR. […] PCN and βNF were dissolved in DMSO as a 1000x stock solution, Pb was dissolved directly in the cell culture media.
# (§6) For the biotransformation of endogenous compounds and xenobiotics including drugs, liver cytochromes P450 (Cyp450) play a critical role as they convert substances into more polar products to facilitate the elimination from the body. The major drug-metabolizing Cyp450 in mouse include Cyp1a1, Cyp1a2, Cyp2b10, and Cyp3a11 [34]. To assess their metabolic capacity, spheroids were incubated with well-known Cyp450 inducers for […] and analyzed for Cyp450 induction on RNA level on day 10 and day 17 (Figs 2C and S4). […] Additionally, spheroids were incubated with Phenobarbital (Pb), a known Cyp2b10 and Cyp3a11 inducer.
# [8] = system: Cyp3a11; set-up: method as in PMID 22466549; settings: mouse in vivo; cited from earlier work
# [9] = system: liver coculture spheroids; assay: Cytotoxicity by LDH release or ATP content in the cholestasis study; settings: all treatment conditions (1.25, 2.5, 10 μM), 24 h
# [10] = system: bile-salt-export pump (BSEP); assay: Drug-induced cholestasis: BSEP gene expression (qRT-PCR) in coculture spheroids; settings: 24 h
# [11] = system: Cyp2b10; assay: Cyp450 induction on mRNA level (qRT-PCR) in liver spheroids; format: in vitro ADME, mouse; settings: 100 μM Pb
# Experimental: as §5, §6
# [12] = system: H2-Ab1 (MHC-II); assay: MHC-II induction on LSECs: H2-Ab1 gene expression (qRT-PCR) in coculture spheroids; format: cell-based, mouse; settings: 100 ng ml^-1 TNFα, 48 h
# Experimental: as §1, §2
# [13] = system: Acta2 (alpha smooth muscle actin); assay: Stellate-cell activation: Acta2 gene expression (qRT-PCR) in coculture spheroids; format: cell-based, mouse; settings: 72 h
# Experimental: as §1
# NPCs are activated upon detection of endotoxins, such as lipopolysaccharides (LPS), which leads to the secretion of certain cytokines by NPCs. To assess the functionality and activation potential of NPCs, monoculture and coculture spheroids were treated with LPS for 72 hours and analyzed for interleukin 6 (IL-6) release (Fig 4C). […] Stellate cells are quiescent in a normal liver but can be activated upon liver damage and are responsible for scar-tissue formation. Stimulation with transforming growth factor beta (TGFβ), triggered a dose-dependent induction of Acta2 (alpha smooth muscle actin, αSMA), which is an activation marker for stellate cells (Fig 4D). Low concentrations of TGFβ increased Acta2 induction by 3.5 fold, whereas higher concentrations induced gene expression by 4.7-fold and 8-fold, respectively. The functional characterization of liver sinusoidal endothelial cells was performed by induction of the major histocompatibility complex II (MHC-II), which is constitutively expressed in LSECs but can be further increased by exposure to pro-inflammatory cytokines, such as tumor necrosis factor alpha (TNFα).
# [14] = system: TNFα; assay: Crosstalk of parenchymal and non-parenchymal cells: TNFα mRNA in coculture spheroids; format: cell-based, mouse; settings: addition of 50 μM Dexamethasone to LPS; as compared to IL-6
# Experimental: as §3, §4
# [15] = system: Cyp3a; assay: Cyp3a inhibition, P450-Glo activity assay in non-induced spheroids; settings: 10 μM Ketoconazole
# [16] = system: Cyp1a1; assay: Cyp450 induction on mRNA level (qRT-PCR) in liver spheroids; format: in vitro ADME, mouse; settings: 15 μM βNF
# Experimental: as §5, §6
# [17] = system: Cyp1a2; assay: as above; format: in vitro ADME, mouse; settings: 15 μM βNF
# Experimental: as §5, §6
# [18] = read-out: 3D in vitro IC50 48 h
# [19] = read-out: 3D in vitro IC50 8 days
compound,measurement,setting,value
CN(C)[C@@H]1C(O)=C(C(N)=O)C(=O)[C@@]2(O)C(O)=C3C(=O)c4c(O)cccc4[C@@](C)(O)[C@H]3C[C@@H]12 [Tetracycline],pIC50,[1]; [18],3.36
same,pIC50,[1]; [19],4.40
same,Cmax,[2],11 µM
same,Cmax,[3],21 µM
CN(Cc1cnc2nc(N)nc(N)c2n1)c1ccc(C(=O)N[C@@H](CCC(=O)O)C(=O)O)cc1 [Methotrexate],reduction in cell viability after a single dosage,[1],only a slight reduction in cell viability
same,MOS [3D in vitro IC50 / Human Cmax] 48 h,[1],84’231
same,MOS [3D in vitro IC50 / Human Cmax] 8 days,[1],44.64
same,pIC50,[1]; [19],3.68
same,hepatotoxicity class by IC50/Cmax (MOS),[1]; mouse,assigned to the correct class
same,Cmax,[2],43 µM
CC(=O)Nc1ccc(O)cc1 [Acetaminophen],pIC50,[1]; [19],2.56
same,Cmax,[2],2220 µM
same,Cmax,[3],136 µM
lipopolysaccharide [LPS],IL-6 release,[4]; coculture spheroids,65 ± 11 pg/mL
same,IL-6 release,[4]; monoculture spheroids,2 pg/mL
same,Cyp3a11 mRNA induction,[5],did not lead to Cyp3a11 mRNA induction
same,IL-6 mRNA expression increase,"[6]; LPS alone, 10 μg/ml, 48 h, coculture spheroids",6 fold
O=C(O)Cc1ccccc1Nc1c(Cl)cccc1Cl [Diclofenac],pIC50,[1]; [18],3.53
same,pIC50,[1]; [19],4.53
same,Cmax,[2],10 µM
same,Cmax,[3],9.43 µM
CC(=O)[C@H]1[C@H](C#N)C[C@H]2[C@@H]3CC=C4C[C@@H](O)CC[C@]4(C)[C@H]3CC[C@@]21C [Pregnenolone 16α-carbonitrile],Cyp3a11 mRNA induction compared to the vehicle control,[7]; day 10 (treated day 7-10),20 fold
same,Cyp3a11 mRNA induction compared to the vehicle control,[7]; day 17 (treated day 14-17),59 fold
same,reduced expression of Cyp3a11 mRNA when administered together with LPS,[8],25%
Cc1c(C)c2c(c(C)c1O)CCC(C)(COc1ccc(CC3SC(=O)NC3=O)cc1)O2 (stereo not shown) [Troglitazone],cytotoxicity by LDH or ATP,[9],no cytotoxicity
same,inhibition of BSEP expression,[10]; 1.25 μM,10%
same,inhibition of BSEP expression,[10]; 2.5 μM,40%
same,inhibition of BSEP expression,[10]; 10 μM,89%
CCC1(c2ccccc2)C(=O)NC(=O)NC1=O [Phenobarbital],Cyp2b10 mRNA induction,[11]; day 10,1.9 fold
same,Cyp2b10 mRNA induction,[11]; day 17,2.4 fold
same,Cyp3a11 mRNA induction compared to the vehicle control,[7]; day 10 (treated day 7-10),6.2 fold
same,Cyp3a11 mRNA induction compared to the vehicle control,[7]; day 17 (treated day 14-17),3.9 fold
"CN(C)CCCN1c2ccccc2Sc2ccc(Cl)cc21 [CPZ, Chlorpromazine]",cytotoxicity by LDH or ATP,[9],no cytotoxicity
same,inhibition of BSEP expression,[10]; high concentrations of CPZ,96%
same,inhibition of BSEP expression,[10]; low concentrations of CPZ,up to 87%
tumor-necrosis factor alpha [TNFα],increase of mRNA expression of MHC-II (H2-Ab1),[12],2.3 fold
transforming growth factor beta [TGFβ],Acta2 induction,[13]; higher concentration of TGFβ (first of two),4.7 fold
same,Acta2 induction,[13]; higher concentration of TGFβ (second of two),8 fold
same,Acta2 induction,[13]; low concentrations of TGFβ,3.5 fold
C[C@@H]1C[C@H]2[C@@H]3CCC4=CC(=O)C=C[C@]4(C)[C@@]3(F)[C@@H](O)C[C@]2(C)[C@@]1(O)C(=O)CO [Dexamethasone],reduction of LPS-induced IL-6 mRNA induction,[6]; co-administration of 50 μM Dexamethasone with LPS,~ 50%
same,effect on LPS-induced TNFα gene expression,[14],only moderate reduction
CC(C)NCC(O)COc1cccc2ccccc12 (stereo not shown) [Propranolol],Cmax,[3],0.2 µM
CC(=O)N1CCN(c2ccc(OCC3COC(Cn4ccnc4)(c4ccc(Cl)cc4Cl)O3)cc2)CC1 (stereo not shown) [Ketoconazole],downregulation of Cyp3a activity,[15],60%
O=C1CC2(CCCC2)CC(=O)N1CCCCN1CCN(c2ncccn2)CC1 [Buspirone],MOS [3D in vitro IC50 / Human Cmax] 48 h,[1],49189
same,MOS [3D in vitro IC50 / Human Cmax] 8 days,[1],20489
same,pIC50,[1]; [18],3.35
same,pIC50,[1]; [19],3.73
same,hepatotoxicity class by IC50/Cmax (MOS),[1]; mouse,non-DILI compounds
same,Cmax,[3],0.009 µM
O=c1cc(-c2ccccc2)oc2ccc3ccccc3c12 [β-naphthoflavone],Cyp1a1 mRNA induction,[16]; day 10,90 fold
same,Cyp1a1 mRNA induction,[16]; day 17,103 fold
same,Cyp1a2 mRNA induction,[17]; day 10,157 fold
same,Cyp1a2 mRNA induction,[17]; day 17,59 fold
O=P1(N(CCCl)CCCl)NCCCO1 (stereo not shown) [Cyclophosphamide],pIC50,[1]; [18],3.71
same,pIC50,[1]; [19],4.88
same,hepatotoxicity class by IC50/Cmax (MOS),"[1]; after 48 hours (short-term exposure), cut-off 100",hepatotoxic agents
same,Cmax,[2],77 µM
same,Cmax,[3],96 µM
